From patent US20080167277A1, “METHODS OF TREATING SKIN DISORDERS WITH CAFFEIC ACID ANALOGS” (priority 2006, published 2008)

Tested on: psoriasis
Assay: Topical dosage form of CAPE in petroleum jelly for treating psoriasis
Assay type: in vivo
Conditions: 10.0 weight percent in petroleum jelly
From the text: In some embodiments, the topical dosage forms may contain 0.5 weight percent to 20.0 weight percent of the compounds described herein. […] The weight percent of the compounds described herein within the topical dosage forms may range from 1.0 weight percent to 15.0 weight percent or 5.0 weight percent to 11.0 weight percent. Treatment regimes with the topical dosage forms may occur daily, twice daily, three times daily or four times daily for durations, for example, of three weeks or four weeks or until symptoms are no longer present.

O=C(/C=C/c1ccc(O)c(O)c1)OCCc1ccccc1 [CAPE, caffeic acid phenethyl ester]
effectiveness for treating psoriasis: effective
